{"source": "patent US20260364214A1", "about": "“MULTIVALENT FIBROBLAST ACTIVATION PROTEIN LIGANDS FOR TARGETED DELIVERY APPLICATIONS” (Philochem AG, priority 2022, published 2026)", "key": {"[1]": {"target": "T1, recombinant hFAP (Homo sapiens, UniProt Q12884)", "T1 sequence (Q12884 26-760 limits assumed)": "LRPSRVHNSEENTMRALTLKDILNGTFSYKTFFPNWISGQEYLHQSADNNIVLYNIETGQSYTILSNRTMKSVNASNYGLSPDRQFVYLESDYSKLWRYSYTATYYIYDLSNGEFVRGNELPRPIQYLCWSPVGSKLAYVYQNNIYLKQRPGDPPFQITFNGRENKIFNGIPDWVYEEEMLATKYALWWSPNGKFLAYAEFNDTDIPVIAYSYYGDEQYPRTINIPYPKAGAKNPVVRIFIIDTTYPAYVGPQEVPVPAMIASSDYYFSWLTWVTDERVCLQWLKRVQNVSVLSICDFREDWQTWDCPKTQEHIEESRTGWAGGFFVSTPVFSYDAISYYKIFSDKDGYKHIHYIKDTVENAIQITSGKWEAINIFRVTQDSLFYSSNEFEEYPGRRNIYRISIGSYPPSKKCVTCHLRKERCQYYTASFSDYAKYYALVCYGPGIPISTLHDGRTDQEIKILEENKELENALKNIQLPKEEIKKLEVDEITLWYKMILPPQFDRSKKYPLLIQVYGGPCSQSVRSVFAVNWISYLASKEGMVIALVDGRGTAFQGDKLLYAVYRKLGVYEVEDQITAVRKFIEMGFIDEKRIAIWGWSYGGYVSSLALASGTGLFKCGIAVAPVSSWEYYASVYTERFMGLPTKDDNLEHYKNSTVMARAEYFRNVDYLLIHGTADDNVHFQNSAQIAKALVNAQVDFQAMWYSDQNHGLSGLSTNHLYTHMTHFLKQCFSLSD", "experiment": "hFAP inhibition assay (Z-Gly-Pro-AMC substrate)", "assay_type": "biochemical", "experimental": "(§1) Enzymatic activity of hFAP on the Z-Gly-Pro-AMC substrate was measured at room temperature on a microtiter plate reader, monitoring the fluorescence at an excitation wavelength of 360 nm and an emission wavelength of 465 nm. The reaction mixture contained substrate (20 μM), protein (66 μM, constant), assay buffer (50 mM Tris, 100 mM NaCl, and 1 mM EDTA, pH=7.4), and inhibitors with serial dilution from 167 nM to 80 fM, 1:2 in a total volume of 20 μL. Experiments were performed in triplicate, and the mean fluorescence values were fitted using Prism 7. The value is defined as the concentration of inhibitor required to reduce the enzyme activity by 50% after addition of the substrate [FIG. 1 and FIG. 8].\nAccording to the same procedure, further comparative inhibition assays with trimeric binders having inter alia different lengths of linker group B and/or different payload groups C were performed with compounds Tri-ESV6-ValCit-MMAE (14), Tri-ESV6-linker-DOTAGA (13) and diastereoisomers of Tri-ESV6-DOTAGA (11, 12) [FIG. 18]. Comparative hFAP inhibition assays with tetravalent binders 10 and 29 were also performed [FIG. 20].\nas §1, with “substrate.” for “substrate [FIG. 1 and FIG. 8].”\nas §1, with “e) Inhibition assay with Tri-ESV6-DOTAGA, Tetra-ESV6-DOTAGA, Hexa-ESV6-DOTAGA, Octa-ESV6-DOTAGA, ESV6-L-DOTAGA and BI-ESV6-L-DOTAGA. Enzymatic” for “Enzymatic”, “substrate.” for “substrate [FIG. 1 and FIG. 8].”"}, "[2]": {"test_system": "SK-RC-52.hFAP cells", "experiment": "Cell efflux assay with 177Lu-labeled ligands", "assay_type": "cell-based", "experimental": "SK-RC-52.hFAP cells, were cultured using RPMI medium supplemented with 10% Fetal Bovine Serum (FBS) and 1% Antibiotic-Antimytotic. Cells were seeded in 24-well plates (200'000 cells/well, 0.5 mL/well) and incubated overnight at 37 °C, 5% CO2. Then, media was removed, cells were washed with PBS (2×0.5 mL) and incubated with a solution of ^177Lu-ESV6, ^177Lu-Bi-ESV6, ^177Lu-Tri-ESV6 or ^177Lu-FAP-2286 (10 KBq, […], 0.5 mL). After 1 h, media was removed, and cells were washed with PBS (2×0.5 mL) and incubated with fresh RPMI medium without supplements. Fractions of the culture media were measured with a gamma counter (Packard Cobra) at different time-points. Percentage of compound bound was calculated as fraction of the total activity and corrected for the ^177Lu decay, as shown in FIG. 3."}}}
{"molecule": "N#C[C@@H]1CC(F)(F)CN1C(=O)CNC(=O)c1ccnc2c(NC(=O)CCC(=O)NCCNC(=O)CCOCC(COCCC(=O)NCCNC(=O)CCC(=O)Nc3cccc4c(C(=O)NCC(=O)N5CC(F)(F)C[C@H]5C#N)ccnc34)(COCCC(=O)NCCNC(=O)CCC(=O)Nc3cccc4c(C(=O)NCC(=O)N5CC(F)(F)C[C@H]5C#N)ccnc34)NC(=O)CCC(C(=O)O)N3CCN(CC(=O)O)CCN(CC(=O)O)CCN(CC(=O)O)CC3)cccc12", "note": "(stereo partly drawn) [Tri-ESV6-DOTAGA, 2,2′,2″-(10-(19-carboxy-1-((4-((2-((S)-2-cyano-4,4-difluoropyrrolidin-1-yl)-2-oxoethyl)carbamoyl)quinolin-8-yl)amino)-14,14-bis((3-((2-(4-((4-((2-((S)-2-cyano-4,4-difluoropyrrolidin-1-yl)-2-oxoethyl)carbamoyl)quinolin-8-yl)amino)-4-oxobutanamido)ethyl)amino)-3-oxopropoxy)methyl)-1,4,9,16-tetraoxo-12-oxa-5,8,15-triazanonadecan-19-yl)-1,4,7,10-tetraazacyclododecane-1,4,7-triyl)triacetic acid]", "values": [{"measurement": "IC50", "setting": "[1]; Z-Gly-Pro-AMC 20 μM, protein 66 μM, pH 7.4, room temperature", "value": 0.012, "unit": "nM"}, {"measurement": "IC50 / inhibitory activity, comparison in words", "setting": "[1]; recombinant hFAP", "value": "remarkably lower IC50 compared to ESV6-DOTAGA, Bi-ESV6-DOTAGA and FAP-2286"}, {"measurement": "lower IC50 compared to Tri-ESV6-PEG12-DOTAGA", "setting": "[1]; vs Tri-ESV6-PEG12-DOTAGA", "value": "~ 1000 fold"}, {"measurement": "improvement in IC50 as compared to Bi-ESV6-DOTAGA", "setting": "[1]; vs bivalent Bi-ESV6-DOTAGA", "value": 10, "unit": "fold"}, {"measurement": "improvement in IC50 as compared to ESV6-DOTAGA", "setting": "[1]; vs monovalent ESV6-DOTAGA", "value": 43, "unit": "fold"}]}
{"molecule": "N#CC1CC(F)(F)CN1C(=O)CNC(=O)c1ccnc2c(NC(=O)CCC(=O)NCCNC(=O)CCOCC(COCCC(=O)NCCNC(=O)CCC(=O)Nc3cccc4c(C(=O)NCC(=O)N5CC(F)(F)CC5C#N)ccnc34)(COCCC(=O)NCCNC(=O)CCC(=O)Nc3cccc4c(C(=O)NCC(=O)N5CC(F)(F)CC5C#N)ccnc34)NC(=O)CCC(C(=O)O)N3CCN(CC(=O)[O-])CCN(CC(=O)[O-])CCN(CC(=O)[O-])CC3)cccc12.[177Lu+3]", "note": "(stereo not drawn) [^177Lu-Tri-ESV6-DOTAGA]", "values": [{"measurement": "residence time / efflux, in words", "setting": "[2]", "value": "longer residence time in FAP-positive tumor cells, followed by ^177Lu-Bi-ESV6, ^177Lu-ESV6 and ^177Lu-FAP2286"}]}
